Assay results: the supplement of paper PMC10307832

Legend:
Assay in all cases: relative viability (nuclei count vs DMSO), 5 days (fraction); higher = more cells survive
BMX-IN-1 + OSI-027 = compound: C=CC(=O)Nc1cc(-n2c(=O)ccc3cnc4ccc(-c5ccc(NS(C)(=O)=O)cc5)cc4c32)ccc1C [BMX-IN-1] + COc1cccc2cc(-c3nc([C@H]4CC[C@H](C(=O)O)CC4)n4ncnc(N)c34)[nH]c12 [OSI-027] (partner 0.5 µM)
Summary of the method: (§1)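 Cells from lung cancer lines were seeded into 1536-well plates and, one day later, dosed by pin tool. Treatments were either a single drug or a fixed dose of an anchor drug with five library-drug doses (not always all listed) in √10 steps. After 5 days, nuclei were stained in a one-step fixation (final 0.05% Triton X-100, 1% formaldehyde, 1 ug/ml Hoechst) and counted on 4× images, and relative viability is the treated-to-vehicle nuclei ratio, as the median of duplicate plates.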

BMX-IN-1 + Luminespib = compound: C=CC(=O)Nc1cc(-n2c(=O)ccc3cnc4ccc(-c5ccc(NS(C)(=O)=O)cc5)cc4c32)ccc1C [BMX-IN-1] + CCNC(=O)c1noc(-c2cc(C(C)C)c(O)cc2O)c1-c1ccc(CN2CCOCC2)cc1 [Luminespib] (partner 0.01 µM)
Summary of the method: as §1

Ibrutinib + Tozasertib = compound: C=CC(=O)N1CCC[C@@H](n2nc(-c3ccc(Oc4ccccc4)cc3)c3c(N)ncnc32)C1 [Ibrutinib] + Cc1cc(Nc2cc(N3CCN(C)CC3)nc(Sc3ccc(NC(=O)C4CC4)cc3)n2)n[nH]1 [Tozasertib] (partner 0.1 µM)
Summary of the method: as §1

BMX-IN-1 + Tozasertib = compound: C=CC(=O)Nc1cc(-n2c(=O)ccc3cnc4ccc(-c5ccc(NS(C)(=O)=O)cc5)cc4c32)ccc1C [BMX-IN-1] + Cc1cc(Nc2cc(N3CCN(C)CC3)nc(Sc3ccc(NC(=O)C4CC4)cc3)n2)n[nH]1 [Tozasertib] (partner 0.1 µM)
Summary of the method: as §1

Cell Line | relative viability (BMX-IN-1 + OSI-027; first compound 0.02 µM) | relative viability (BMX-IN-1 + OSI-027; first compound 0.2 µM) | relative viability (BMX-IN-1 + OSI-027; first compound 0.6325 µM) | relative viability (BMX-IN-1 + OSI-027; first compound 2 µM) | relative viability (BMX-IN-1 + Luminespib; first compound 0.02 µM) | relative viability (BMX-IN-1 + Luminespib; first compound 0.2 µM) | relative viability (BMX-IN-1 + Luminespib; first compound 0.6325 µM) | relative viability (BMX-IN-1 + Luminespib; first compound 2 µM) | relative viability (Ibrutinib + Tozasertib; first compound 0.005 µM) | relative viability (Ibrutinib + Tozasertib; first compound 0.01581 µM) | relative viability (Ibrutinib + Tozasertib; first compound 0.05 µM) | relative viability (Ibrutinib + Tozasertib; first compound 0.1581 µM) | relative viability (Ibrutinib + Tozasertib; first compound 0.5 µM) | relative viability (BMX-IN-1 + Tozasertib; first compound 0.02 µM) | relative viability (BMX-IN-1 + Tozasertib; first compound 0.2 µM) | relative viability (BMX-IN-1 + Tozasertib; first compound 0.6325 µM) | relative viability (BMX-IN-1 + Tozasertib; first compound 2 µM)
201T | 0.805 | 0.985 | 0.798 | 0.824 | 1.07 | 1.1 | 1.09 | 0.98 | 0.984 | 0.916 | 0.971 | 0.959 | 0.849 | 1.17 | 0.997 | 0.953 | 0.896
A-427 | 0.448 | 0.417 | 0.501 | 0.461 | 1.13 | 0.844 | 1.01 | 1.04 | 0.22 | 0.185 | 0.281 | 0.23 | 0.212 | 0.183 | 0.182 | 0.21 | 0.2
ABC-1 | 0.504 | 0.491 | 0.655 | 0.412 | 0.586 | 0.571 | 0.359 | 0.322 | 0.151 | 0.149 | 0.159 | 0.198 | 0.187 | 0.199 | 0.162 | 0.145 | 0.172
BEN | 0.319 | 0.282 | 0.294 | 0.31 | 0.417 | 0.332 | 0.328 | 0.364 | – | 0.459 | 0.471 | 0.561 | 0.536 | 0.58 | 0.498 | 0.52 | 0.507
CAL-12T | 0.712 | 0.665 | 0.659 | 0.679 | 0.578 | 0.483 | 0.392 | 0.712 | 0.324 | 0.309 | 0.268 | 0.365 | 0.151 | 0.345 | 0.375 | 0.344 | 0.297
COR-L23 | 1.01 | 0.945 | 1.01 | 0.754 | 0.807 | 0.782 | 1.07 | 0.548 | 0.209 | 0.214 | 0.247 | 0.227 | 0.181 | 0.186 | 0.312 | 0.213 | 0.212
COR-L 105 | 0.817 | 0.668 | 0.814 | 0.586 | 0.753 | 0.693 | 0.928 | 0.706 | 0.35 | 0.337 | 0.339 | 0.373 | 0.303 | 0.388 | 0.318 | 0.76 | 0.358
ChaGo-K-1 | 0.731 | 0.635 | 0.624 | 0.786 | 0.665 | 0.708 | 0.536 | 0.778 | 0.228 | 0.218 | 0.212 | 0.232 | 0.22 | 0.216 | 0.227 | 0.218 | 0.237
EKVX | 0.848 | 0.689 | 0.783 | 0.663 | 0.945 | 0.835 | 0.85 | 0.857 | 0.427 | 0.332 | 0.4 | 0.426 | 0.269 | 0.519 | 0.468 | 0.445 | 0.383
EMC-BAC-2 | 0.363 | 0.363 | 0.421 | 0.403 | 1.36 | 1.33 | 1.4 | 1.1 | 0.303 | 0.295 | 0.31 | 0.325 | 0.286 | 0.286 | 0.287 | 0.289 | 0.274
EPLC-272H | 0.262 | 0.261 | 0.323 | 0.314 | 0.208 | 0.223 | 0.242 | 0.247 | 0.171 | 0.171 | 0.25 | 0.126 | 0.193 | 0.218 | 0.222 | 0.279 | 0.245
H3255 | 0.635 | 0.658 | 0.578 | 0.518 | 0.851 | 0.907 | 1.02 | 0.927 | 0.729 | 0.615 | 0.581 | 0.672 | 0.312 | 0.788 | 0.648 | 0.577 | 0.624
HARA | 0.403 | 0.544 | 0.562 | 0.457 | 1.01 | 0.207 | 0.683 | 0.682 | 0.0994 | 0.117 | 0.0863 | 0.0992 | 0.096 | 0.0824 | 0.0995 | 0.111 | 0.092
HCC-15 | 0.801 | 0.708 | 0.698 | 0.583 | 0.571 | 0.363 | 0.297 | 0.369 | 0.464 | 0.413 | 0.563 | 0.396 | 0.357 | 0.449 | 0.53 | 0.531 | 0.398
HCC-44 | 0.617 | 0.515 | 0.56 | 0.474 | 1.29 | 1.27 | 0.821 | 1.04 | 1.1 | 0.945 | 0.734 | – | 0.998 | 1.27 | 0.92 | 0.861 | 0.725
HCC-78 | 0.336 | 0.372 | 0.371 | 0.376 | – | – | – | – | 0.577 | 0.327 | 0.434 | 0.494 | 0.343 | 0.472 | 0.474 | 0.52 | 0.36
HCC-366 | 1.06 | 1.14 | 1.13 | 1.12 | – | – | – | – | 0.127 | 0.116 | 0.107 | 0.118 | 0.0964 | 0.0929 | 0.0929 | 0.112 | 0.1
HCC-827 | 0.785 | 0.968 | 0.828 | 0.778 | 0.589 | 0.805 | 0.716 | 0.713 | 0.396 | 0.39 | 0.513 | 0.437 | 0.224 | 0.524 | 0.434 | 0.415 | 0.442
HOP-62 | 1.01 | 1.16 | 1.03 | 0.817 | 1.08 | 1.06 | 0.891 | 0.926 | 0.447 | 0.408 | 0.467 | 0.403 | 0.473 | 0.431 | 0.413 | 0.388 | 0.373
